The source of these data is patent publication US20130090476A1, “Thiazolylpiperidine Derivatives as Fungicides” (priority 2009, published 2013).

Series [1] concerns Phytophthora infestans. In words: whole plant or invertebrate. The format is in vivo. The conditions noted are these: in Solanum lycopersicum, 168 h, read-out: efficacy.
Series [2] in a line: logP determination by HPLC (EEC Directive 79/831 Annex V.A8), LC-MS.
Series [3] can be described thus: physchem. Particulars: pH 2.7.
Setting [4] is: pH 2.7, log P (pH2.7), pH 2.7, value given in the preparation text.
Setting [5] is: pH 2.7, logP, * acidic range, pH 2.7, 0.1% aqueous formic acid/acetonitrile.

As a reminder, the chromatographic logP is a lipophilicity value derived from retention on a column. Low readings indicate a more hydrophilic compound, high ones a more lipophilic compound.

As for `Cc1cc(C(F)(F)F)nn1CC(=O)N1CCC(c2nc(C[S+]([O-])c3cccc4ccccc34)cs2)CC1` (centres unmarked) [Compound I-13, 2-[5-Methyl-3-(trifluoromethyl)-1H-pyrazol-1-yl]-1-(4-{4-[(1-naphthylsulphinyl)methyl]-1,3-thiazol-2-yl}piperidin-1-yl)ethanone], in series [1], the pest or weed control at 500 ppm is no less than 70%. The chromatographic logP in series [2] (setting [4]) and in series [2] (setting [5]) was 2.86 in each case.
As for `Cc1cc(C(F)(F)F)nn1CC(=S)N1CCC(c2nc(CSc3nnnn3-c3ccccc3)cs2)CC1` [Compound I-15, 2-[5-Methyl-3-(trifluoromethyl)-1H-pyrazol-1-yl]-1-[4-(4-{[(1-phenyl-1H-tetrazol-5-yl)sulphanyl]methyl}-1,3-thiazol-2-yl)piperidin-1-yl]ethanethione], in series [1], the pest or weed control at 500 ppm was no less than 70%. Also, the chromatographic logP in series [2] (setting [4]) was 3.82; in series [2] (setting [5]), 2.82; in series [2] (pH 7.8, logP, ** neutral range, pH 7.8, 0.001 molar aqueous ammonium bicarbonate/acetonitrile), 2.87.
For the molecule `CC(C)(C)OC(=O)N1CCC(c2nc(CSC(=N)N)cs2)CC1` [IX-1, Amino[({2-[1-(tert-butoxycarbonyl)piperidin-4-yl]-1,3-thiazol-4-yl}methyl)sulphanyl]methaniminium iodide], in series [3], the chromatographic logP amounted to 1.44.
